Data: patent US9079821B2, “Quinone based nitric oxide donating compounds” (NICOX S.A., priority 2011, dated 2015)
Read-outs that look alike come from different tables or passages of the source.

Assay: Pharmacokinetic profile in rats (blood 15N-nitrite levels)
Type: in vivo, rat
Experimental: The absorption and in vivo NO-donating property of the compounds of the invention were assessed by the evaluation of blood ^15N-nitrite levels following oral administration.
Tested Compounds: • 5-(2,4,5-trimethyl-3,6-dioxocyclohexa-1,4-dienylpentyl nitrate-nitrogen-15 which corresponds to compound (1) containing nitrogen-15 (^15N-Compound (1)); • 5-(4,5-dimethoxy-2-methyl-3,6-dioxocyclohexa-1,4-dienyl)pentyl nitrate-nitrogen-15 which corresponds to compound (2) containing nitrogen-15 (^15N-Compound (2)); • 4-(2,4,5-trimethyl-3,6-dioxocyclohexa-1,4-dienyl)butyl nitrate-nitrogen-15 which corresponds to compound (3) containing nitrogen-15 (^15N-Compound (3)); • 4-(4,5-dimethoxy-2-methyl-3,6-dioxocyclohexa-1,4-dienyl)butyl nitrate-nitrogen-15 which corresponds to compound (4) containing nitrogen-15 (^15N-Compound (4)); • 10-(2,4,5-trimethyl-3,6-dioxocyclohexa-1,4-dienyl)decyl nitrate-nitrogen-15 which corresponds to compound (5) containing nitrogen-15 (^15N-Compound (5)); • 10-(4,5-dimethoxy-2-methyl-3,6-dioxocyclohexa-1,4-dienyl)decyl nitrate-nitrogen-15 which corresponds to compound (6) containing nitrogen-15 (^15N-Compound (6)); • 3-(3-(4,5-dimethoxy-2-methyl-3,6-dioxocyclohexa-1,4-dienyl)propoxy)propyl nitrate-nitrogen-15 which corresponds to compound (14) containing nitrogen-15 (^15N-Compound (14)); • 6-(2,4,5-trimethyl-3,6-dioxocyclohexa-1,4-dienyl)hexyl nitrate-nitrogen-15 which corresponds to compound (15) containing nitrogen-15 (^15N-Compound (15)); • 6-(4,5-dimethoxy-2-methyl-3,6-dioxocyclohexa-1,4-dienyl)hexyl nitrate-nitrogen-15 which corresponds to compound (16) containing nitrogen-15 (^15N-Compound (16)); • 11-(4,5-dimethoxy-2-methyl-3,6-dioxocyclohexa-1,4-dienyl)-undecane-1,2-diyl dinitrate-nitrogen-15 which corresponds to compound (17) containing nitrogen-15 (^15N-Compound (17)); • 8-(5-methoxy-2,4-dimethyl-3,6-dioxocyclohexa-1,4-dienyl)octyl nitrate-nitrogen—which corresponds to compound (19) containing nitrogen-15 (^15N-Compound (19)); • 2-(3-(4,5-dimethoxy-2-methyl-3,6-dioxocyclohexa-1,4-dienyl)propoxy)ethyl nitrate-nitrogen-15 which corresponds to compound (20) containing nitrogen-15 (^15N-Compound (20)); • 6-(3-methyl-1,4-dioxo-1,4-dihydronaphthalen-2-yl)hexyl nitrate-nitrogen-15 which corresponds to compound (23) containing nitrogen-15 (^15N-Compound (23)); • 3-(3-(3-methyl-1,4-dioxo-1,4-dihydronaphthalen-2-yl)propoxy)propyl nitrate-nitrogen-15 which corresponds to compound (25) containing nitrogen-15 (^15N-Compound (25)); • 6-(5-methoxy-2,4-dimethyl-3,6-dioxocyclohexa-1,4-dienyl)hexyl nitrate-nitrogen-15 which corresponds to compound (28) containing nitrogen-15 (^15N-Compound (28)); • 6-(4-methoxy-2,5-dimethyl-3,6-dioxocyclohexa-1,4-dienyl)hexyl nitrate-nitrogen-15 which corresponds to compound (29) containing nitrogen-15 (^15N-Compound (29)); • 8-(4-methoxy-2,5-dimethyl-3,6-dioxocyclohexa-1,4-dienyl)octyl nitrate-nitrogen-15 which corresponds to compound (32) containing nitrogen-15 (^15N-Compound (32)); • 8-(2,4,5-trimethyl-3,6-dioxocyclohexa-1,4-dienyl)octyl nitrate-nitrogen-15 which corresponds to compound (34) containing nitrogen-15 (^15N-Compound (34)); • 5-isorbide mononitrate containing nitrogen-15 (5-ISM^15N).
Cannulated SD rats were orally treated with ^15N-Compounds (6) at 30 mg/kg, 5-ISM^15N (30 mg/kg), or ^15N-Compounds (1)-(5), 14)-(17), (19), (20), (23), (25), (28), (29), (32), (34) at 30 mg/kg. At each time point (5, 10, 15, 30, 60, 180, 360 and 1440 min) blood was taken using heparin to avoid blood clotting. Blood samples were immediately protein crushed. Samples were analyzed by LC-MS/MS.
In Table 7 are reported ^15N-nitrite blood levels following oral administration of SD rats with 5-ISM^15N (30 mg/kg) or with ^15N-labeled corresponding compounds of the invention (30 mg/kg).

[1] = cannulated SD rats, blood, oral 30 mg/kg

| SMILES | Cmax (rat, in vivo, po, 30 mg/kg) [nM] | 15N-nitrite AUC0-24 (rat, in vivo, po, 30 mg/kg) [µM·min] | 15N-nitrite Tmax (rat, in vivo, po, 30 mg/kg) [h] | other results |
| --- | --- | --- | --- | --- |
| CC1=C(C)C(=O)C(CCCCO[N+](=O)[O-])=C(C)C1=O [^15N-Compound (3), 4-(2,4,5-trimethyl-3,6-dioxocyclohexa-1,4-dienyl)butyl nitrate-nitrogen-15] | 4820 ± 1100 |  |  |  |
| CC1=C(C)C(=O)C(CCCCCCCCCCO[N+](=O)[O-])=C(C)C1=O [^15N-Compound (5), 10-(2,4,5-trimethyl-3,6-dioxocyclohexa-1,4-dienyl)decyl nitrate-nitrogen-15] | 1890 ± 420 |  |  |  |
| COC1=C(OC)C(=O)C(CCCCCO[15N+](=O)[O-])=C(C)C1=O [^15N-Compound (2), 5-(4,5-dimethoxy-2-methyl-3,6-dioxocyclohexa-1,4-dienyl)pentyl nitrate-nitrogen-15] |  | 1139 | 1 |  |
| COC1=C(OC)C(=O)C(CCCCO[N+](=O)[O-])=C(C)C1=O [^15N-Compound (4), 4-(4,5-dimethoxy-2-methyl-3,6-dioxocyclohexa-1,4-dienyl)butyl nitrate-nitrogen-15] | 3330 ± 100 | 832 | 0.25 |  |
| COC1=C(OC)C(=O)C(CCCOCCCO[15N+](=O)[O-])=C(C)C1=O [^15N-Compound (14), 3-(3-(4,5-dimethoxy-2-methyl-3,6-dioxocyclohexa-1,4-dienyl)propoxy)propyl nitrate-nitrogen-15] |  | 694 | 1 |  |
| COC1=C(OC)C(=O)C(CCCCCO[N+](=O)[O-])=C(C)C1=O [^15N-Compound (2), 5-(4,5-dimethoxy-2-methyl-3,6-dioxocyclohexa-1,4-dienyl)pentyl nitrate-nitrogen-15] | 1920 ± 250 |  |  |  |
| CC1=C(C)C(=O)C(CCCCCO[N+](=O)[O-])=C(C)C1=O [^15N-Compound (1)] | 3350 ± 420 | 1248 | 1 |  |
| CC1=C(C)C(=O)C(CCCCCCCCCCO[15N+](=O)[O-])=C(C)C1=O [^15N-Compound (5), 10-(2,4,5-trimethyl-3,6-dioxocyclohexa-1,4-dienyl)decyl nitrate-nitrogen-15] |  | 1496 | 3 |  |
| COC1=C(OC)C(=O)C(CCCOCCO[15N+](=O)[O-])=C(C)C1=O [^15N-Compound (20), 2-(3-(4,5-dimethoxy-2-methyl-3,6-dioxocyclohexa-1,4-dienyl)propoxy)ethyl nitrate-nitrogen-15] |  |  |  | 15N-nitrite AUC0-24 [1]: 1154 µM·min; 15N-nitrite Tmax [1]: 1 h |
| CC1=C(C)C(=O)C(CCCCO[15N+](=O)[O-])=C(C)C1=O [^15N-Compound (3), 4-(2,4,5-trimethyl-3,6-dioxocyclohexa-1,4-dienyl)butyl nitrate-nitrogen-15] |  | 1404 | 1 |  |
| COC1=C(OC)C(=O)C(CCCOCCO[N+](=O)[O-])=C(C)C1=O [^15N-Compound (20), 2-(3-(4,5-dimethoxy-2-methyl-3,6-dioxocyclohexa-1,4-dienyl)propoxy)ethyl nitrate-nitrogen-15] |  |  |  | Cmax (cannulated SD rats, blood, oral 30 mg/kg, read-out: 15N-nitrite Cmax): 3580 ± 720 nM |

The next lines start with results.

| Cmax (rat, in vivo, po, 30 mg/kg) [nM] | 15N-nitrite AUC0-24 (rat, in vivo, po, 30 mg/kg) [µM·min] | 15N-nitrite Tmax (rat, in vivo, po, 30 mg/kg) [h] | SMILES | other results |
| --- | --- | --- | --- | --- |
| 2890 ± 690 | 2010 | 3 | CC1=C(CCCOCCCO[N+](=O)[O-])C(=O)c2ccccc2C1=O [^15N-Compound (25), 3-(3-(3-methyl-1,4-dioxo-1,4-dihydronaphthalen-2-yl)propoxy)propyl nitrate-nitrogen-15] |  |
|  | 2135 | 3 | CC1=C(C)C(=O)C(CCCCCCO[15N+](=O)[O-])=C(C)C1=O [^15N-Compound (15), 6-(2,4,5-trimethyl-3,6-dioxocyclohexa-1,4-dienyl)hexyl nitrate-nitrogen-15] |  |
| 2060 ± 120 | 1666 | 3 | COC1=C(OC)C(=O)C(CCCCCCCCCC(CO[N+](=O)[O-])O[N+](=O)[O-])=C(C)C1=O (stereo not drawn) [^15N-Compound (17), 11-(4,5-dimethoxy-2-methyl-3,6-dioxocyclohexa-1,4-dienyl)-undecane-1,2-diyl dinitrate-nitrogen-15] |  |
| 2550 ± 220 | 1309 | 1 | COC1=C(C)C(=O)C(CCCCCCO[N+](=O)[O-])=C(C)C1=O [^15N-Compound (29), 6-(4-methoxy-2,5-dimethyl-3,6-dioxocyclohexa-1,4-dienyl)hexyl nitrate-nitrogen-15] |  |
| 1980 ± 570 | 1892 | 3 | COC1=C(C)C(=O)C(CCCCCCCCO[N+](=O)[O-])=C(C)C1=O [^15N-Compound (32), 8-(4-methoxy-2,5-dimethyl-3,6-dioxocyclohexa-1,4-dienyl)octyl nitrate-nitrogen-15] |  |
| 2930 ± 490 | 1559 | 3 | COC1=C(OC)C(=O)C(CCCCCCO[N+](=O)[O-])=C(C)C1=O [^15N-Compound (16), 6-(4,5-dimethoxy-2-methyl-3,6-dioxocyclohexa-1,4-dienyl)hexyl nitrate-nitrogen-15] |  |
| 3650 ± 580 |  |  | CC1=C(C)C(=O)C(CCCCCCO[N+](=O)[O-])=C(C)C1=O [^15N-Compound (15), 6-(2,4,5-trimethyl-3,6-dioxocyclohexa-1,4-dienyl)hexyl nitrate-nitrogen-15] |  |
|  | 2586 | 3 | CC1=C(CCCCCCO[15N+](=O)[O-])C(=O)c2ccccc2C1=O [^15N-Compound (23), 6-(3-methyl-1,4-dioxo-1,4-dihydronaphthalen-2-yl)hexyl nitrate-nitrogen-15] |  |
| 1520 ± 110 |  |  | COC1=C(OC)C(=O)C(CCCOCCCO[N+](=O)[O-])=C(C)C1=O [^15N-Compound (14), 3-(3-(4,5-dimethoxy-2-methyl-3,6-dioxocyclohexa-1,4-dienyl)propoxy)propyl nitrate-nitrogen-15] |  |
| 3740 ± 420 | 1199 | 1 | COC1=C(C)C(=O)C(C)=C(CCCCCCO[N+](=O)[O-])C1=O [^15N-Compound (28), 6-(5-methoxy-2,4-dimethyl-3,6-dioxocyclohexa-1,4-dienyl)hexyl nitrate-nitrogen-15] |  |
| 4050 ± 530 |  |  | CC1=C(CCCCCCO[N+](=O)[O-])C(=O)c2ccccc2C1=O [^15N-Compound (23), 6-(3-methyl-1,4-dioxo-1,4-dihydronaphthalen-2-yl)hexyl nitrate-nitrogen-15] |  |
| 2800 ± 250 |  |  | CC1=C(C)C(=O)C(CCCCCCCCO[N+](=O)[O-])=C(C)C1=O [^15N-Compound (34), 8-(2,4,5-trimethyl-3,6-dioxocyclohexa-1,4-dienyl)octyl nitrate-nitrogen-15] |  |
|  | 1477 | 3 | CC1=C(C)C(=O)C(CCCCCCCCO[15N+](=O)[O-])=C(C)C1=O [^15N-Compound (34), 8-(2,4,5-trimethyl-3,6-dioxocyclohexa-1,4-dienyl)octyl nitrate-nitrogen-15] |  |
